Read-outs that look alike come from different tables or passages of the source.
How the values were obtained:
HIV-1 protease = molecular target: T1, HIV-1 protease (Human immunodeficiency virus type 1 group M subtype B, UniProt P04585); assay: Assay for inhibitory effect on HIV protease (residual enzyme activity, HPLC of substrate cleavage); format: biochemical; conditions: pH 5.5; for Ki / kinact: HIV-1 protease 2.6 nM; for Ki: inhibition constant; for kinact: rate constant of covalent bond formation, read-out: kina (converted); for kinact/KI: second order rate constant, HIV-1 protease, read-out: kina /KI (converted)
T1 construct: 2.6 nM of HIV-1 protease
Summary of the method: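 HIV-1 protease (2.6 nM) incubated with inhibitor in 50 mM sodium acetate pH 5.5, 1 mM DTT, 1 mM EDTA, 0.75 M ammonium sulfate, 0.2 M NaCl, 0.1% NP40. Residual activity was sampled over time using 100 μM p-NO2-Phe undecapeptide substrate (KM 20 μM), HPLC, 280 nm. kobs came from ln(activity)-versus-time slope, and KI and kina from kinetic fitting.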

[1] = Cytotoxicity in H9 or Sup T1 cells (trypan blue dye exclusion); format: cell-based; conditions: human
Experimental: (§1) To determine the cytotoxicity of the compounds of the present invention, 0.1 μM to 100 μM of the novel compounds were added to H9 cell or Sup T1 cell and the mixture was cultured on a rpmi-1640 medium at 37° C. The medium was refreshed every 3 days and the extent of cell proliferation was observed using Hemacytometer according to the trypan blue dye exclusion technique which is well known in the art. CT50 (i.e., concentration that causes death of cells by 50%) was determined. For reference, AZT(Burrows-Wellcome), A-75925 (Abbott, C2 symmetric compound) and Ro-31-8959(F. Hofmann-La Roche) were used as control compounds.

HIV-1 = assay: Anti-viral activity: syncytium formation (Sup T1) or reverse transcriptase assay (H9); format: cell-based
Experimental: The anti-viral activity of the compounds of the present invention was determined by measuring the concentration of the compounds that inhibits the proliferation of HIV by 50%(IC50) through a survey for syncytium formation or reverse transcriptase assay.
1×10^5 cells of each of H9(ATCC HTB 176) and Sup T1 cell lines were added to the wells of a 24-well microtiter plate and various concentrations so the compounds of the present invention were added thereto. 200 TCID50 (200-fold of 50% tissue culture infection dose) of HIV-1 inoculum and rpmi-1640 medium(Sigma Chemical Co., U.S.A) were added successively to the wells and the plate was incubated at 37° C. In case of Sup T1, the number of syncytium formed was investigated after 3 to 9 days. IC50 of each compound was determined by measuring the concentration of inhibitor that can reduce the number of syncytium by 50% compared with those formed in the same condition without the inhibitor.
In case of H9, three-quarters(3/4) of the culture medium in volume was refreshed every 3 days; and 6 ml of the culture fluid was centrifuged at 1000 rpm for 10 minutes. To 5 ml of the resulting supernatant were added 2.5 ml of 30% polyethyleneglycol(PEG, M.W. 6000-8000) and 0.4M NaCl. The resulting solution was allowed to stand at 0° C. overnight to precipitate virus particles. The solution was centrifuged at 2000 rpm for 45 minutes, the supernatant was discarded therefrom and the precipitate was diluted with 20 μl of a reverse transcriptase suspension buffer(50 mM tris-HCl, pH 7.5, 1 mM dithiothreitol, 20% glycerol, 0.25M KCl and 0.25% Triton X-100). The resulting suspension was stored in an Effendorf tube at -70° C. until used. A procedure of freezing said virus suspension for 2 minutes in dry ice and thawing same at 37° C. for 2 minutes was repeated three times and the resulting suspension was centrifuged at 4° C. The resulting supernatant was used in carrying out the reverse transcriptase assay.
10 μl of the said viral suspension was added to a solution of: 10 μl of buffer solution(250 mM tris-HCl, pH 7.5, 37.5 mM MgCl2, 0.25% triton X-100), 1.2 μl of 200 mM dithiothreitol, 5 μl of 10 μM oligo(dT)-poly(A)(Boeringer Manheim, 12-18 oligomer), 1 μl(1 μCi) of ^3 H-TTP(Thymidinetri-phosphate) and 23.6 μl of water; and the resulting mixture was placed at 37° C. After 1 hour, the mixture was poured onto a WHATMAN DEB1 filter and the filter was washed three times with 5 ml of 2×SSC buffer solution(17.53 g of sodium chloride, 8.82 g of sodium citrate, pH 7.0, 1 liter of water) for about 10 minutes each time and twice with 95% ethanol for 10 seconds. The filter was put onto aluminium foil and dried with an infra-red lamp. The amount of radioactivity was counted using a liquid scintillation counter. IC50 of each compound was determined by measuring the concentration of inhibitor that can reduce the activity of reverse transcriptase by 50%.

H9 cell or Sup T1 cell = assay: Cytotoxicity in H9 or Sup T1 cells (trypan blue dye exclusion); format: cell-based; conditions: human, h9 or sup t1 cells
Experimental: as §1

[2] = concentration that causes death of cells by 50%, H9 or Sup T1 cells, 37° C, read-out: CT50 (the source's name)
[3] = Human immunodeficiency virus 1, SUP-T1

| SMILES | Ki (HIV-1 protease) [nM] | kinact (HIV-1 protease) [s⁻¹] | kinact/KI (HIV-1 protease) [M⁻¹ s⁻¹] | CC50 [1, 2] [nM] | IC50 (HIV-1; [3]) [nM] | CC50 ([1]; h9 or sup t1 cells) [nM] | CC50 (H9 cell or Sup T1 cell) [nM] | IC50 (HIV-1; inhibits proliferation of HIV by 50%, Sup T1 syncytium or H9 reverse transcriptase assay, 37° C, read-out: IC50) [nM] |
| --- | --- | --- | --- | --- | --- | --- | --- | --- |
| CC(C)[C@H](NC(=O)OCc1ccccc1)C(=O)N[C@@H](Cc1ccccc1)[C@H]1O[C@H]1CNC(=O)OC(C)(C)C [compound 82, 4S-[N^1-(t-butoxycarbonyl)amino]-[N^4-[(N-benzyloxycarbonyl-L-valinyl)amino]]-5-phenyl-(2S,3R)-(Z)-epoxypentane] | 450 | 0.0183 | 40000 | > 10000 | 750 | – | – | – |
| CC(C)[C@H](NC(=O)OCc1ccccc1)C(=O)NC[C@@H]1O[C@@H]1[C@H](CC1CCCCC1)NC(=O)[C@@H](NC(=O)OCc1ccccc1)C(C)C [compound 86, 4S-1,4-bis[N-(N'-benzyloxycarbonyl-L-valinyl)amino]-5-cyclohexyl-(2S,3R)-(Z)-epoxypentane] | 50 | 0.00333 | 66700 | > 100000 | 500 | – | – | – |
| CC(C)[C@H](NC(=O)C[C@@H]1O[C@@H]1[C@H](Cc1ccccc1)NC(=O)[C@H](CC(N)=O)NC(=O)c1ccc2ccccc2n1)c1ccccc1 [compound 47] | 12 | 0.0383 | 3.17e+06 | > 100000 | 70 | – | – | – |
| CC[C@H](C)[C@H](NC(=O)C[C@@H]1O[C@@H]1[C@H](Cc1ccccc1)NC(=O)[C@H](CC(N)=O)NC(=O)c1ccc2ccccc2n1)C(=O)NCc1ccccn1 [compound 9] | 55 | 0.00183 | 33300 | > 100000 | 8000 | – | – | – |
| CC[C@H](C)[C@H](NC(=O)C[C@@H]1O[C@@H]1[C@H](Cc1ccccc1)NC(=O)[C@H](CC(N)=O)NC(=O)c1ccc2ccccc2n1)C(=O)N[C@H](C(=O)OC)C(C)C [compound 6] | 420 | 0.00217 | 5170 | > 100000 | 5000 | – | – | – |
| CC[C@H](C)[C@H](NC(=O)C[C@@H]1O[C@@H]1[C@H](Cc1ccccc1)NC(=O)[C@H](CC(N)=O)NC(=O)c1ccc2ccccc2n1)C(=O)N(C)C [compound 26] | > 10000 | – | – | > 100000 | 500 | – | – | – |
| NC(=O)C[C@H](NC(=O)OCc1ccccc1)C(=O)NC[C@@H]1O[C@@H]1[C@H](CC1CCCCC1)NC(=O)[C@H](CC(N)=O)NC(=O)OCc1ccccc1 [compound 85] | > 10000 | – | – | – | 5000 | > 100000 | – | – |
| CC[C@H](C)[C@H](NC(=O)C[C@@H]1O[C@@H]1[C@H](Cc1ccccc1)NC(=O)[C@H](CC(N)=O)NC(=O)c1ccc2ccccc2n1)C(=O)NCc1ccccc1 [compound 8] | 60 | 0.002 | 33300 | > 100000 | 7000 | – | – | – |
| NC(=O)C[C@H](NC(=O)c1ccc2ccccc2n1)C(=O)NC[C@@H]1O[C@@H]1[C@H](Cc1ccccc1)NC(=O)[C@H](CC(N)=O)NC(=O)c1ccc2ccccc2n1 [compound 84] | 500 | 0.00333 | 6670 | > 100000 | 1000 | – | – | – |
| CC(C)[C@H](CCc1ccccc1)NC(=O)C[C@@H]1O[C@@H]1[C@H](Cc1ccccc1)NC(=O)[C@H](CC(N)=O)NC(=O)c1ccc2ccccc2n1 [compound 44] | 11 | 0.0417 | 3.83e+06 | > 100000 | 300 | – | – | – |
| CC(C)[C@H](NC(=O)OCc1ccccc1)C(=O)N[C@@H](Cc1ccccc1)[C@@H](O)[C@H](O)[C@H](Cc1ccccc1)NC(=O)[C@@H](NC(=O)OCc1ccccc1)C(C)C [A-75925, reference compound] | – | – | – | – | – | – | > 100000 | 250 |
| CC[C@H](C)[C@H](NC(=O)C[C@@H]1O[C@@H]1[C@H](Cc1ccccc1)NC(=O)[C@H](CC(N)=O)NC(=O)COc1cccc2ccccc12)C(=O)OC [compound 3] | 40 | 0.002 | 50000 | > 100000 | 3000 | – | – | – |
| CC(C)[C@H](Cc1ccccc1)NC(=O)C[C@@H]1O[C@@H]1[C@H](Cc1ccccc1)NC(=O)[C@H](CC(N)=O)NC(=O)c1ccc2ccccc2n1 [compound 42, [[(5S)-[N-(2-quinolinecarbonyl)-L-asparaginyl]amino]-(4R,3S)-epoxy-6-phenyl-1-hexanoyl]-[(2S)-[1-phenyl-3-methyl]butyl]amide] | 0.8 | 0.0433 | 5.5e+07 | > 100000 | 20 | – | – | – |
| C[C@@H](O)[C@H](NC(=O)OCc1ccccc1)C(=O)NC[C@@H]1O[C@@H]1[C@H](Cc1ccccc1)NC(=O)[C@@H](NC(=O)OCc1ccccc1)[C@@H](C)O [compound 73] | > 10000 | – | – | > 100000 | 5000 | – | – | – |
| CC(C)[C@@H](NC(=O)C[C@@H]1O[C@@H]1[C@H](Cc1ccccc1)NC(=O)[C@H](CC(N)=O)NC(=O)c1ccc2ccccc2n1)c1ccccc1 [compound 43] | 3.2 | 0.0283 | 88300 | > 100000 | 50 | – | – | – |
| CC(C)[C@H](NC(=O)OCc1ccccn1)C(=O)NC[C@@H]1O[C@@H]1[C@H](Cc1ccccc1)NC(=O)[C@@H](NC(=O)OCc1ccccn1)C(C)C [compound 77] | 100 | 0.004 | 40000 | > 100000 | 1000 | – | – | – |
| COC(=O)C(CCC(N)=O)NC(=O)C[C@@H]1O[C@@H]1[C@H](Cc1ccccc1)NC(=O)[C@H](CC(N)=O)NC(=O)OCc1ccccc1 (stereo partly shown) [compound 13] | 520 | 0.00717 | 13800 | > 100000 | 10000 | – | – | – |
| CC(C)[C@H](NC(=O)OCc1ccccc1)C(=O)NC[C@@H]1O[C@@H]1[C@H](Cc1ccccc1)NC(=O)[C@H](CC(N)=O)NC(=O)OCc1ccccc1 [compound 75] | > 10000 | – | – | > 10000 | 1000 | – | – | – |

Source: patent publication US5744621A, “Irreversible HIV protease inhibitors, intermediates, compositions and processes for the preparation thereof” (Lucky Limited., priority 1992, dated 1998)
